From publication PMC7162861, “Synthesis, cytotoxicity, pharmacokinetic profile, binding with DNA and BSA of new imidazo[1,2-a]pyrazine-benzo[d]imidazol-5-yl hybrids” (Scientific Reports, 2020)
Like-named read-outs stand apart in the source and are kept apart here.

Assays:
CT-DNA = assay: Thermal denaturation of CT-DNA; type: binding, calf; details: CT-DNA 8.5 µM : compound 10 µM, pH 7.4
Procedure: DNA melting studies were completed by measuring the absorption spectra at 260 nm of CT-DNA (8.5 µM) and CT-DNA-derivative 31 complex (8.5 µM:10 µM) in phosphate buffer (pH 7.4) at varying temperature from 20 to 100 °C using spectrophotometer connected with Peltier.

T-47D = assay: NCI cytotoxicity screen, Breast Cancer panel; type: cell-based
Procedure: (§1) Cytotoxicity was performed at National Cancer Institute (NCI), Bethesda, USA as per their protocols.

MDA-MB-468 = assay: NCI cytotoxicity screen, Breast Cancer panel; type: cell-based; details: Homo sapiens, five dose 0.01–100 µM
Procedure: as §1

MCF7 = assay: NCI cytotoxicity screen, Breast Cancer panel; type: cell-based
Procedure: as §1

BT-549 = assay: NCI cytotoxicity screen, Breast Cancer panel; type: cell-based
Procedure: as §1

MDA-MB-231/ATCC = assay: NCI cytotoxicity screen, Breast Cancer panel; type: cell-based
Procedure: as §1

HS 578 T = assay: NCI cytotoxicity screen, Breast Cancer panel; type: cell-based
Procedure: as §1

NCI-522 = assay: NCI cytotoxicity screen, Non-Small Cell Lung Cancer panel; type: cell-based, human
Procedure: as §1

NCI-H322M = assay: as above; type: cell-based, human
Procedure: as §1

NCI-H226 = assay: as above; type: cell-based, human
Procedure: as §1

NCI-H23 = assay: as above; type: cell-based, human; details: five dose 0.01–100 µM
Procedure: as §1

HL-60(TB) = assay: NCI cytotoxicity screen, Leukemia panel; type: cell-based
Procedure: as §1

SR = assay: NCI cytotoxicity screen, Leukemia panel; type: cell-based
Procedure: as §1

CCRF-CEM = assay: NCI cytotoxicity screen, Leukemia panel; type: cell-based
Procedure: as §1

RPMI-8226 = assay: NCI cytotoxicity screen, Leukemia panel; type: cell-based; details: for GI50: RPMI-8226, RPMI-8226
Procedure: as §1

MOLT-4 = assay: NCI cytotoxicity screen, Leukemia panel; type: cell-based; details: MOLT-4
Procedure: as §1

K-562 = assay: NCI cytotoxicity screen, Leukemia panel; type: cell-based
Procedure: as §1

[1] = target: bovine serum albumin (BSA) (Bos taurus, UniProt P02769); assay: BSA binding, fluorescence quenching (Stern-Volmer, Scatchard)
bovine serum albumin (BSA), sequence (P02769 25-607): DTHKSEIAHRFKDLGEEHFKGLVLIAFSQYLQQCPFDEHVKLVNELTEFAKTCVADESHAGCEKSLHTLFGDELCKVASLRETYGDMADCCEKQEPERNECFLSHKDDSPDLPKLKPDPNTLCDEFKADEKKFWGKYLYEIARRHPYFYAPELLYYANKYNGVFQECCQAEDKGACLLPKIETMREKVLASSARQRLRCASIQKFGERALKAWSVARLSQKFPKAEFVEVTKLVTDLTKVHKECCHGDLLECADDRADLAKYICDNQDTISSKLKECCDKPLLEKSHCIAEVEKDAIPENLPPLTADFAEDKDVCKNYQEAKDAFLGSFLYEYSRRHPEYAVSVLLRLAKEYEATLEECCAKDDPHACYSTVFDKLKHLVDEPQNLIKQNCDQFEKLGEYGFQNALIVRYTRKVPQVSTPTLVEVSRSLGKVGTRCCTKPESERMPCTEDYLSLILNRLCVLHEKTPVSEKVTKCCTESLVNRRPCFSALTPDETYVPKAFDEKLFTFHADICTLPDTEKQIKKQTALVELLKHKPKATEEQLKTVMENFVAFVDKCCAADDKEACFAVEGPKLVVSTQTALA
Procedure: The stock solution of compound 31 (10^−3 M) was prepared in DMSO and diluted to required concentration using appropriate buffer solution. Calf thymus (CT)-DNA was dissolved in 10 mM Tris buffer of pH 7.4 having 1 mM EDTA at room temperature. The purity of DNA solution was determined by using the ratio of absorbance at 260 nm and 280 nm wavelength. Extinction coefficient 6600 M^−1 cm^−1 of single nucleotide at 260 nm was used to determine the concentration of the DNA solution. The stock solution of BSA (10^−3 M) was prepared in distilled water and stored at 4 °C temperature.
[…] The dissociation constant of compound 31 was estimated by titrating the complex of compound 31 (10 µM) and BSA (10 µM) with increasing concentration of ibuprofen (0–15 µM), upon excitation at 280 nm. All emission spectra were recorded in the range of 200 to 800 nm.
Binding parameters KSV and Kq were calculated using the Stern-Volmer equation (Eq. 2):2 F0/F=1+Ksv[Analyte]=1+Kqτo[Analyte]
Fo denotes the emission intensity of derivative 31/BSA free from analyte (CT-DNA/ derivative 31), whereas, F denotes the emission intensity of derivative 31/BSA bound with analyte (CT-DNA/derivative 31). The values of KSV and Kq were determined from the plot of Fo/F vs. [analyte].
The binding parameters Kbin and n were determined using Scatchard equation (Eq. 3):3 logF0−F/F=logKbin+nlog[analyte]
Fo and F denote similar factors as those of the above Stern-Volmer equation. The values of Kbin and n were determined from the plot of log (Fo − F)/F vs. log [analyte].

HCT-116 = assay: NCI cytotoxicity screen, Colon Cancer panel; type: cell-based; details: Homo sapiens, five dose 0.01–100 µM
Procedure: as §1

HT29 = assay: NCI cytotoxicity screen, Colon Cancer panel; type: cell-based
Procedure: as §1

[2] = system: NCI-60 cancer cell panels; assay: NCI cytotoxicity screen, full panel summary; type: cell-based
Procedure: as §1

[3] = system: Human Embryonic Kidney cells (HEK293); assay: MTT assay on normal cell line; type: cell-based; details: 48 h
Procedure: HEK-293 cells (human embryonic kidney cells) were grown in Dulbecco’s modified eagle’s medium (DMEM) supplemented with 100 U/ml penicillin, 10% FBS, […] streptomycin and 50 mM glutamine. Furthermore, cells were harvested using trypsin and seeded in a 96-well cell culture plate for the MTT (3-(4,5-Dimethylthiazol-2-yl)-2,5-diphenyltetrazolium bromide) assay. The test compound was solubilized in cell culture grade DMSO. Once the cells in 96-well plates were 70% confluent, the compound was injected to the cells at five concentrations (0.01, 0.1, 1, 10, 100 µM) at 37 °C for 48 h (made in DMEM supplemented with 1% antibiotic and 10% FBS). After 48 h, cells were washed with PBS and added with 100 μL of fresh media in each well along with 10 μL of MTT reagent (5 mg/mL) for another 4 h. After 4 h, the media was again removed and added 100 μL cell culture grade DMSO to dissolve the formazan crystals formed by the reduction of MTT by live cells. The quantity of formed formazan crystal was determined as alterations in absorbance at 570 nm wavelength using ELISA plate reader (Bio-Tek). All tests were accomplished three times. The cell toxicity (%) was calculated using the following formula: %CellToxicity=100−ODoftreatedwell/ODofuntreatedwell×100

[4] = Homo sapiens, five dose 0.01–100 µM, read-out: LC50 (the source's name)
[5] = Homo sapiens, read-out: Percent growth inhibition

In the case of c1cn2cc(-c3ccc4ncn(C5CCCCC5)c4c3)nc(-c3ccc4c(c3)ncn4C3CCCCC3)c2n1 [Compound 31, 8-(1-cyclohexyl-1H-benzo[d]imidazol-5-yl)-6-(1-cyclohexyl-1H-benzo[d]imidazol-6-yl)imidazo[1,2-a]pyrazine], the “∆Tm” value (CT-DNA) is reported as 12 °C, the GI50 (T-47D; Homo sapiens, T47D) is reported as 1900 nM and the CC50 (T-47D; Homo sapiens, T47D, T-47D, five dose 0.01–100 µM, read-out: LC50 (the source's name)) is reported as greater than 1000 nM. It also gave a TGI (T-47D; T-47D, five dose 0.01–100 µM) of 4690 nM, a GI50 (MDA-MB-468) of 2320 nM and a CC50 (MDA-MB-468; read-out: LC50 (the source's name)) greater than 1000 nM. For the same molecule, the GI50 (MCF7; Homo sapiens) was 1800 nM, the CC50 (MCF7; [4]) was greater than 1000 nM and the TGI (MCF7; five dose 0.01–100 µM) was 4580 nM. For the same molecule, the GI50 (BT-549; Homo sapiens) was 1940 nM, the CC50 (BT-549; [4]) was 6820 nM and the TGI (BT-549; five dose 0.01–100 µM) was 3640 nM. The GI50 (MDA-MB-231/ATCC; Homo sapiens, MDA-MB-231) was 1290 nM, the CC50 (MDA-MB-231/ATCC; Homo sapiens, MDA-MB-231/ATCC, five dose 0.01–100 µM, read-out: LC50 (the source's name)) was 7330 nM and the TGI (MDA-MB-231/ATCC; MDA-MB-231/ATCC, five dose 0.01–100 µM) was 3080 nM. The TGI (HS 578 T; HS 578 T, five dose 0.01–100 µM) was 6740 nM, the GI50 (HS 578 T; Homo sapiens, Hs-578T) was 2390 nM and the inhibition at 10 µM (HS 578 T; Homo sapiens, Hs-578T, read-out: Percent growth inhibition) was 96.6%. For the same molecule, the CC50 (HS 578 T; Homo sapiens, HS 578 T, five dose 0.01–100 µM, read-out: LC50 (the source's name)) was greater than 1000 nM, the GI50 (NCI-522; Homo sapiens) was 1740 nM and the TGI (NCI-522; NCI-522, five dose 0.01–100 µM) was 3400 nM. It also gave a GI50 (NCI-H322M; Homo sapiens) of 1910 nM, an inhibition at 10 µM (NCI-H322M; Homo sapiens, single dose 10 µM, negative = lethal, read-out: Percent growth inhibition) of 98.8% and a TGI (NCI-H322M; five dose 0.01–100 µM) of 4140 nM. The GI50 (NCI-H226; Homo sapiens) was 1690 nM, the TGI (NCI-H226; five dose 0.01–100 µM) was 3790 nM and the GI50 (NCI-H23; Homo sapiens) was 2010 nM. For the same molecule, the TGI (NCI-H23) was 4090 nM, the TGI (HL-60(TB); HL-60(TB), five dose 0.01–100 µM) was 4570 nM and the GI50 (HL-60(TB); Homo sapiens, HL-60) was 1840 nM. For the same molecule, the CC50 (HL-60(TB); Homo sapiens, HL-60(TB), five dose 0.01–100 µM, read-out: LC50 (the source's name)) was greater than 1000 nM, the GI50 (SR; Homo sapiens) was 2870 nM and the CC50 (SR; [4]) was greater than 1000 nM. It also gave an inhibition at 10 µM (SR; [5]) of 97.5%, a TGI (SR; five dose 0.01–100 µM) greater than 1000 nM and a GI50 (CCRF-CEM; Homo sapiens) of 1690 nM. For the same molecule, the CC50 (CCRF-CEM; [4]) was greater than 1000 nM, the inhibition at 10 µM (CCRF-CEM; [5]) was 95.7% and the TGI (CCRF-CEM; five dose 0.01–100 µM) was 6080 nM. For the same molecule, the GI50 (RPMI-8226; Homo sapiens, five dose) was 806 nM, the GI50 (RPMI-8226; Homo sapiens, five dose 0.01–100 µM) was 800 nM and the CC50 (RPMI-8226; Homo sapiens, RPMI-8226, five dose 0.01–100 µM, read-out: LC50 (the source's name)) was greater than 1000 nM. For the same molecule, the TGI (RPMI-8226; RPMI-8226, five dose 0.01–100 µM) was 3990 nM, the GI50 (MOLT-4; Homo sapiens) was 1640 nM and the CC50 (MOLT-4; [4]) was greater than 1000 nM. It also gave a TGI (MOLT-4; five dose 0.01–100 µM) of 5220 nM, a GI50 (K-562; Homo sapiens, K562) of 2570 nM and a CC50 (K-562; Homo sapiens, K562, K-562, five dose 0.01–100 µM, read-out: LC50 (the source's name)) greater than 1000 nM. The TGI (K-562; K-562, five dose 0.01–100 µM) was greater than 1000 nM, the “Stern-Volmer quenching constant (Ksv)” value ([1]; BSA) was 104000 M⁻¹ and the “apparent bimolecular quenching constant (Kq)” value ([1]; BSA) was 1.04e+13 M⁻¹ s⁻¹. For the same molecule, the “quenching of BSA emission band at 350 nm” value ([1]; BSA 10 µM, compound 0–16 µM) was “up to 70%”, the Kbin ([1]; BSA, Scatchard) was 47000 M⁻¹ and the “n (number of binding sites)” value ([1]; BSA, Scatchard) was 0.92. For the same molecule, the Kd ([1]; BSA, Scatchard, read-out: binding constant (Kbin) (converted)) was 21300 nM, the KSV ([1]; BSA, Stern-Volmer constant) was 104000 M⁻¹ and the Kq ([1]; BSA, apparent bimolecular quenching constant) was 1.04e+13 M⁻¹ s⁻¹. For the same molecule, the GI50 (HCT-116) was 1700 nM, the TGI (HT29; HT29, five dose 0.01–100 µM) was 5200 nM and the GI50 (HT29; Homo sapiens, HT-29) was 2440 nM. The CC50 (HT29; Homo sapiens, HT-29, HT29, five dose 0.01–100 µM, read-out: LC50 (the source's name)) was greater than 1000 nM, the GI50 ([2]; Homo sapiens, read-out: Full panel mean-graph midpoint (MG-MID) GI50) was 2120 nM and the GI50 ([2]; Homo sapiens, read-out: GI50 range over nine panels of cell lines) was 800 to 2870 nM. For the same molecule, the CC50 ([2]; Homo sapiens, average over all cancer cell lines, five dose, read-out: Full panel mean-graph midpoint (MG-MID) LC50) was 6630 nM, the “Full panel mean-graph midpoint (MG-MID) TGI” value ([2]; average over all cancer cell lines, five dose) was 4730 nM and the “number of cell lines with cytostatic effect” value ([2]; single dose 10 µM) was 8. The “number of cell lines with cytotoxic effect” value ([2]; single dose 10 µM) was 51, the “% survival of HEK293 cells” value ([3]; 10^−4 M) was “above 79%” and the “% survival of HEK293 cells” value ([3]; 10^−5 M) was greater than 83%. For the same molecule, the “% survival of HEK293 cells” value ([3]; 10^−6 M) was greater than 84%, the “% survival of HEK293 cells” value ([3]; 10^−7 M) was greater than 89% and the “% survival of HEK293 cells” value ([3]; 10^−8 M) was greater than 90%.
